For one series, the system named is WT HIV-1 (NL4-3). As to the kind of experiment: Anti-HIV-1 activity against wild-type NL4-3 in TZM-bl cell lines.
A further series is described as follows: in vitro. Particulars: human.
Another series concerns WT HIV-1 (IIIB). Particulars: MT-4 cells.
Series [1] concerns NNRTI-resistant strain K103N+Y181C (RES056). Particulars: MT-4 cells.
A further series relates to HIV-1 E138K. The class given is cell-based. Conditions: MT-4 cells; CC50/EC50.
The next series deals with HIV-1 K103N. The class given is cell-based. Conditions: MT-4 cells; CC50/EC50.
The test system of a further series is HIV-1 L100I. The class given is cell-based. Conditions: MT-4 cells; CC50/EC50.
The next series concerns HIV-1 Y188L. The class given is cell-based. Particulars: MT-4 cells; CC50/EC50.
The subject of another series is HIV-1 F227L+V106A. The class given is cell-based. Particulars: MT-4 cells; CC50/EC50.
The next series deals with HIV-1 Y181C. The class given is cell-based. Conditions: MT-4 cells; CC50/EC50.

Marks after values point to notes of the source that are not given here. Some results are limits rather than exact numbers.

Consider `Cc1cc(C#N)cc(C)c1Oc1nc(NC2CCCN(Cc3ccc(S(N)(=O)=O)cc3)CC2)nc2ccsc12` (stereo not drawn) [8a1, 4-((4-((4-(4-Cyano-2,6-dimethylphenoxy)thieno[3,2-d]-pyrimidin-2-yl)amino)azepan-1-yl)methyl)benzenesulfonamide], for which the “SI (CC50/EC50) NL4-3” value in the series with WT HIV-1 (NL4-3) is reported as greater than 100. Still for that read-out and setting: then `Cc1cc(C#N)cc(C)c1Oc1nc(NC2CCCN(Cc3ccc(C(N)=O)cc3)CC2)nc2ccsc12` (stereo not drawn) [8a2, 4-((4-((4-(4-Cyano-2,6-dimethylphenoxy)thieno[3,2-d]-pyrimidin-2-yl)amino)azepan-1-yl)methyl)benzamide], with “X1^d”; and `Cc1cc(C#N)cc(C)c1Oc1nc(NC2CC3CCC(C2)N3Cc2ccc(S(N)(=O)=O)cc2)nc2ccsc12` (stereo not drawn) [8b1, 4-((3-((4-(4-Cyano-2,6-dimethylphenoxy)thieno[3,2-d]-pyrimidin-2-yl)amino)-8-azabicyclo[3.2.1]octan-8-yl)methyl)benzenesulfonamide], with “X1^d”. The same measure, in the same setting: then `Cc1cc(C#N)cc(C)c1Oc1nc(NC2CC3CCC(C2)N3Cc2ccc(C(N)=O)cc2)nc2ccsc12` (stereo not drawn) [8b2, 4-((3-((4-(4-Cyano-2,6-dimethylphenoxy)thieno[3,2-d]-pyrimidin-2-yl)amino)-8-azabicyclo[3.2.1]octan-8-yl)methyl)benzamide], with “X1^d”; and `Cc1cc(C#N)cc(C)c1Oc1nc(NC2CC3CCC(C2)N3Cc2cccc(C(N)=O)c2)nc2ccsc12` (stereo not drawn) [8b3, 3-((3-((4-(4-Cyano-2,6-dimethylphenoxy)thieno[3,2-d]-pyrimidin-2-yl)amino)-8-azabicyclo[3.2.1]octan-8-yl)methyl)benzamide], with “X1^d”.

As for `Cc1cc(C#N)cc(C)c1Oc1nc(NC2CC3CCC(C2)N3Cc2ccc(S(C)(=O)=O)cc2)nc2ccsc12` (stereo not drawn) [8b4, 3,5-Dimethyl-4-((2-((8-(4-(methylsulfonyl)benzyl)-8-azabicyclo[3.2.1]octan-3-yl)amino)thieno[3,2-d]pyrimidin-4-yl)oxy)benzonitrile], in the series with WT HIV-1 (NL4-3), the “SI (CC50/EC50) NL4-3” value is “X1^d”. Take `Cc1cc(C#N)cc(C)c1Oc1nc(NC2CC3CCC(C2)N3Cc2ccncc2)nc2ccsc12` (stereo not drawn) [8b5, 3,5-Dimethyl-4-((2-((8-(pyridin-4-ylmethyl)-8-azabicyclo-[3.2.1]octan-3-yl)amino)thieno[3,2-d]pyrimidin-4-yl)oxy)benzonitrile]: in the series with WT HIV-1 (NL4-3), the “SI (CC50/EC50) NL4-3” value is recorded as “X1^d”. `Cc1cc(C#N)cc(C)c1Oc1nc(N[C@@H]2CCN(Cc3ccc(C(N)=O)cc3)C2)nc2ccsc12` [8c2, (R)-4-((3-((4-(4-Cyano-2,6-dimethylphenoxy)thieno[3,2-d]-pyrimidin-2-yl)amino)pyrrolidin-1-yl)methyl)benzamide] registered a CC50 in the series “in vitro” greater than 0.25 µM. As for `Cc1cc(C#N)cc(C)c1Oc1nc(N[C@@H]2CCN(Cc3cccc(C(N)=O)c3)C2)nc2ccsc12` [8c3, (R)-3-((3-((4-(4-Cyano-2,6-dimethylphenoxy)thieno[3,2-d]-pyrimidin-2-yl)amino)pyrrolidin-1-yl)methyl)benzamide], the CC50 in “in vitro” is greater than 0.25 µM. In the series “in vitro”, `Cc1cc(C#N)cc(C)c1Oc1nc(N[C@@H]2CCN(Cc3ccc(S(C)(=O)=O)cc3)C2)nc2ccsc12` [8c4, (R)-3,5-Dimethyl-4-((2-((1-(4-(methylsulfonyl)benzyl)pyrrolidin-3-yl)amino)thieno[3,2-d]pyrimidin-4-yl)oxy)benzonitrile] showed a CC50 greater than 0.234 µM. For the compound `Cc1cc(C#N)cc(C)c1Oc1nc(N[C@H]2CCN(Cc3ccc(S(N)(=O)=O)cc3)C2)nc2ccsc12` [8d1, (S)-4-((3-((4-(4-Cyano-2,6-dimethylphenoxy)thieno[3,2-d]-pyrimidin-2-yl)amino)pyrrolidin-1-yl)methyl)benzenesulfonamide], the CC50 in the series “in vitro” was greater than 0.233 µM. Regarding `Cc1cc(C#N)cc(C)c1Oc1nc(N[C@H]2CCN(Cc3cccc(C(N)=O)c3)C2)nc2ccsc12` [8d3, (S)-3-((3-((4-(4-Cyano-2,6-dimethylphenoxy)thieno[3,2-d]-pyrimidin-2-yl)amino)pyrrolidin-1-yl)methyl)benzamide], in the series on WT HIV-1 (NL4-3), the “SI (CC50/EC50) NL4-3” value was “X1^d”. `Cc1cc(C#N)cc(C)c1Oc1nc(N[C@H]2CCN(Cc3ccncc3)C2)nc2ccsc12` [8d5, (S)-3,5-Dimethyl-4-((2-((1-(pyridin-4-ylmethyl)pyrrolidin-3-yl)amino)thieno[3,2-d]pyrimidin-4-yl)oxy)benzonitrile] returned a CC50 in “in vitro” greater than 0.273 µM.

Turning to `Cc1cc(C#N)cc(C)c1Oc1nc(NC2CCN(Cc3ccncc3)CC2)nc2c1SCC2` [13a4, 3,5-Dimethyl-4-((2-((1-(pyridin-4-ylmethyl)piperidin-4-yl)amino)-6,7-dihydrothieno[3,2-d]pyrimidin-4-yl)oxy)benzonitrile], the “SI IIIB (CC50/EC50)” value with WT HIV-1 (IIIB) is no less than 40104. The “SI RES056 (CC50/EC50)” value in series [1] is no less than 2305. On to `Cc1cc(C#N)cc(C)c1Oc1nc(NC2CCN(Cc3cccc(C(N)=O)c3)CC2)nc2c1SCC2` [13a6, 3-((4-((4-(4-Cyano-2,6-dimethylphenoxy)-6,7-dihydrothieno[3,2-d]pyrimidin-2-yl)amino)piperidin-1-yl)methyl)benzamide], for which the “SI IIIB (CC50/EC50)” value with WT HIV-1 (IIIB) is given as no less than 8048. Further, the “SI RES056 (CC50/EC50)” value in [1] is no less than 355. The corresponding values for `Cc1cc(C#N)cc(C)c1Oc1nc(NC2CCN(Cc3ccc(N)cc3)CC2)nc2c1CSC2` [13b4, 4-((2-((1-(4-Aminobenzyl)piperidin-4-yl)amino)-5,7-dihydrothieno[3,4-d]pyrimidin-4-yl)oxy)-3,5-dimethylbenzonitrile] are greater than 30377 and greater than 364. On the same counts, the results for `Cc1cc(C#N)cc(C)c1Oc1nc(NC2CCN(Cc3ccc(NS(C)(=O)=O)cc3)CC2)nc2c1CSC2` [13b5, N-(4-((4-((4-(4-Cyano-2,6-dimethylphenoxy)-5,7-dihydrothieno[3,4-d]pyrimidin-2-yl)amino)piperidin-1-yl)methyl)phenyl)methanesulfonamide] are greater than 19670 and greater than 42. For `Cc1cc(C#N)cc(C)c1Oc1nc(NC2CCN(Cc3ccc([N+](=O)[O-])cc3)CC2)nc2c1COC2` [13c5, 3,5-Dimethyl-4-((2-((1-(4-nitrobenzyl)piperidin-4-yl)amino)-5,7-dihydrofuro[3,4-d]pyrimidin-4-yl)oxy)benzonitrile], the “SI IIIB (CC50/EC50)” value in the series on WT HIV-1 (IIIB) is no less than 1497. Besides, the “SI RES056 (CC50/EC50)” value in series [1] is no less than 22. With `Cc1cc(C#N)cc(C)c1Oc1nc(NC2CCN(Cc3ccc(S(N)(=O)=O)cc3)CC2)nc2c1CCC2` [13d1, 4-((4-((4-(4-Cyano-2,6-dimethylphenoxy)-6,7-dihydro-5H-cyclopenta[d]pyrimidin-2-yl)amino)piperidin-1-yl)methyl)benzenesulfonamide], the “SI IIIB (CC50/EC50)” value in the series with WT HIV-1 (IIIB) is recorded as greater than 208333. Besides, in the series on HIV-1 E138K, the “SI E138K” value is greater than 5543. For the same compound, the “SI K103N” value in the series with HIV-1 K103N was greater than 21186. Further, the “SI L100I” value in the series with HIV-1 L100I was greater than 39683. In the series with HIV-1 Y188L, the “SI Y188L” value is on record as greater than 16667. Besides, in the series on HIV-1 F227L+V106A, the “SI F227L+V106A” value is recorded as greater than 6579. The “SI RES056 (CC50/EC50)” value in [1] is recorded as greater than 9091. For the same compound, the “SI Y181C” value in the series on HIV-1 Y181C was greater than 16447. For `Cc1cc(C#N)cc(C)c1Oc1nc(NC2CCN(Cc3ccc(C(N)=O)cc3)CC2)nc2c1CCC2` [13d2, 4-((4-((4-(4-Cyano-2,6-dimethylphenoxy)-6,7-dihydro-5H-cyclopenta[d]pyrimidin-2-yl)amino)piperidin-1-yl)methyl)benzamide], the “SI IIIB (CC50/EC50)” value in the series with WT HIV-1 (IIIB) is recorded as greater than 40984. In addition, the “SI RES056 (CC50/EC50)” value in series [1] is greater than 1448.

In the case of `Cc1cc(C#N)cc(C)c1Oc1nc(NC2CCN(Cc3ccncc3)CC2)nc2c1CCC2` [13d4, 3,5-Dimethyl-4-((2-((1-(pyridin-4-ylmethyl)piperidin-4-yl)amino)-6,7-dihydro-5H-cyclopenta[d]pyrimidin-4-yl)oxy)benzonitrile], in the series on WT HIV-1 (IIIB), the “SI IIIB (CC50/EC50)” value is listed as greater than 147059. Further, in [1], the “SI RES056 (CC50/EC50)” value was greater than 5020. On the same counts, the results for `Cc1cc(C#N)cc(C)c1Oc1nc(NC2CCN(Cc3ccc(S(N)(=O)=O)cc3)CC2)nc2c1CCCC2` [13e1, 4-((4-((4-(4-Cyano-2,6-dimethylphenoxy)-5,6,7,8-tetrahydroquinazolin-2-yl)amino)piperidin-1-yl)methyl)benzenesulfonamide] are greater than 37879 and greater than 342. In the case of `Cc1cc(C#N)cc(C)c1Oc1nc(NC2CCN(Cc3ccc(C(N)=O)cc3)CC2)nc2c1CCCC2` [13e2, 4-((4-((4-(4-Cyano-2,6-dimethylphenoxy)-5,6,7,8-tetrahydroquinazolin-2-yl)amino)piperidin-1-yl)methyl)benzamide], the “SI IIIB (CC50/EC50)” value with WT HIV-1 (IIIB) is greater than 38709. For the same compound, the “SI RES056 (CC50/EC50)” value in series [1] is listed as greater than 799. As for `Cc1cc(C#N)cc(C)c1Oc1nc(NC2CCN(Cc3ccc(S(C)(=O)=O)cc3)CC2)nc2c1CCCC2` [13e3, 3,5-Dimethyl-4-((2-((1-(4-(methylsulfonyl)benzyl)piperidin-4-yl)amino)-5,6,7,8-tetrahydroquinazolin-4-yl)oxy)benzonitrile], the “SI IIIB (CC50/EC50)” value in the series with WT HIV-1 (IIIB) is greater than 33333. Further, in series [1], the “SI RES056 (CC50/EC50)” value is listed as greater than 4032.

On to `Cc1cc(C#N)cc(C)c1Oc1nc(NC2CCN(Cc3ccc(C(N)=O)cc3)CC2)nc2c1SCCC2` [13f2, 4-((4-((4-(4-Cyano-2,6-dimethylphenoxy)-7,8-dihydro-6H-thiopyrano[3,2-d]pyrimidin-2-yl)amino)piperidin-1-yl)methyl)benzamide], for which the “SI IIIB (CC50/EC50)” value with WT HIV-1 (IIIB) is listed as greater than 14767. The “SI RES056 (CC50/EC50)” value in series [1] is recorded as greater than 476. The corresponding values for `Cc1cc(C#N)cc(C)c1Oc1nc(NC2CCN(Cc3ccc(S(C)(=O)=O)cc3)CC2)nc2c1SCCC2` [13f3, 3,5-Dimethyl-4-((2-((1-(4-(methylsulfonyl)benzyl)piperidin-4-yl)amino)-7,8-dihydro-6H-thiopyrano[3,2-d]pyrimidin-4-yl)oxy)benzonitrile] are no less than 872 and no less than 34.6.

For the origin of these results see PMC7441537 (Journal of medicinal chemistry, 2019).
